Measured values published in PMC11096237, “Utilizing a structure-based virtual screening approach to discover potential LSD1 inhibitors” (Journal of Cancer Research and Clinical Oncology, 2024).

Molecular target: T1, LSD1 (Homo sapiens, UniProt O60341)
T1 construct: gene KDM1A
Test: Amplex Red/HRP-coupled fluorescence demethylase assay with purified recombinant LSD1 and H3K4me2
Format: biochemical
Excerpt: Amplex Red/HRP-coupled fluorescence demethylase assay with purified recombinant LSD1 and H3K4me2 on LSD1 | […]

O=C(CNC(=O)Cc1ccccc1)NCC(=O)OCC(=O)c1ccc(OCc2ccccc2)cc1 [ZINC10039815]
IC50: 99 nM
